Reference: ChEMBL document CHEMBL5291721, “A preclinical secondary pharmacology resource illuminates target-adverse drug reaction associations of marketed drugs” (Nat Commun, 2023)

Legend:
[1] = target: T1, Alpha-1A adrenergic receptor (Homo sapiens, UniProt P35348); format: functional, cell-based
T1 sequence (P35348 whole entry): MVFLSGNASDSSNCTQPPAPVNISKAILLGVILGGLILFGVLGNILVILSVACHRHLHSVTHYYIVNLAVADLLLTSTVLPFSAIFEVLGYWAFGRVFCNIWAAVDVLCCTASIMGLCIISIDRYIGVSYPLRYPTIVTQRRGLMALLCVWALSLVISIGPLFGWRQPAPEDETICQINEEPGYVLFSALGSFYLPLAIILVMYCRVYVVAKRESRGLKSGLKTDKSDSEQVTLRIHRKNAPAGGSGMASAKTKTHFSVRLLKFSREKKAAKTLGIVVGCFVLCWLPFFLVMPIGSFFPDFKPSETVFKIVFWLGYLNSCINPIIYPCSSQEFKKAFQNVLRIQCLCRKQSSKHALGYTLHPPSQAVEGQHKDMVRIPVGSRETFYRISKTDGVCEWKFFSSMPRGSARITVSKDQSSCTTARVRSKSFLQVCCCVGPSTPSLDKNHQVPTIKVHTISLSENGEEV

[2] = target: T2, Alpha-2A adrenergic receptor (Homo sapiens, UniProt P08913)
T2 sequence (P08913 whole entry): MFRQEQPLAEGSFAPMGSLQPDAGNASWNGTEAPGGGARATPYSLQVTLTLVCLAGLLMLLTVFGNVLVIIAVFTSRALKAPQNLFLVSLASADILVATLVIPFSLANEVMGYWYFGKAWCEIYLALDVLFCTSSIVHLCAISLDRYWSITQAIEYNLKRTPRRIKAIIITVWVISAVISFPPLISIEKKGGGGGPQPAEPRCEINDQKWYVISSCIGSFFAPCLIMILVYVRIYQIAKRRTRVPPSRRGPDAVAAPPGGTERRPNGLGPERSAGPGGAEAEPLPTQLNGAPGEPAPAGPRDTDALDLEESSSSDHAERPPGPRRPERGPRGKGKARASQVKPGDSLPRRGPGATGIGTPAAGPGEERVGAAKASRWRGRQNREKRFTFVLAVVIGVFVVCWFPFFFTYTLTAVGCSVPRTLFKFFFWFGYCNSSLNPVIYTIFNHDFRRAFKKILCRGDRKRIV

[3] = target: T3, Muscarinic acetylcholine receptor M2 (Homo sapiens, UniProt P08172)
T3 sequence (P08172 whole entry): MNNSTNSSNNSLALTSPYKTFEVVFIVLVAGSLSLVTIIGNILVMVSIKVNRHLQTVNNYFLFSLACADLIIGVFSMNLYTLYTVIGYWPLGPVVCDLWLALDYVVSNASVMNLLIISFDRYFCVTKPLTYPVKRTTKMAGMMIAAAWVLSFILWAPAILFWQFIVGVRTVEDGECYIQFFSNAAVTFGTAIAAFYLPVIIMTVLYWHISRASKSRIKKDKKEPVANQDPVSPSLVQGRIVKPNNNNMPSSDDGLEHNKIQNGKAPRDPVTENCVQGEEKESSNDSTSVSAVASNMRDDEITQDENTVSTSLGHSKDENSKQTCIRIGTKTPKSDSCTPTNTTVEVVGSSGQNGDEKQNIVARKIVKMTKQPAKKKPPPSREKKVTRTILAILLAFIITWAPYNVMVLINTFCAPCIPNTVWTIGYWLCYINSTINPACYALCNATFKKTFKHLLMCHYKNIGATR

[4] = target: Sodium-dependent noradrenaline transporter (Homo sapiens, UniProt P23975)
[5] = target: T4, Thromboxane A2 receptor (Homo sapiens, UniProt P21731); format: functional, cell-based
T4 sequence (P21731 whole entry): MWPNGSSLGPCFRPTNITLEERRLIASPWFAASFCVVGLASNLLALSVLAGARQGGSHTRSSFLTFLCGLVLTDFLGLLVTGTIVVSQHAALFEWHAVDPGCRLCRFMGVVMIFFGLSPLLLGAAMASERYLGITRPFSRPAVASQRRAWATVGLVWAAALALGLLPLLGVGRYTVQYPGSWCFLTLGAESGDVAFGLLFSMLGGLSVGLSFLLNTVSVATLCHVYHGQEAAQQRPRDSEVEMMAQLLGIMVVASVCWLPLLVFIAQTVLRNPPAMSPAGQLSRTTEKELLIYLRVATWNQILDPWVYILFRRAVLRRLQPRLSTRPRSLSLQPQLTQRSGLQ
Also: assay procedure not described here.

Sequence of Sodium-dependent noradrenaline transporter (P23975 whole entry): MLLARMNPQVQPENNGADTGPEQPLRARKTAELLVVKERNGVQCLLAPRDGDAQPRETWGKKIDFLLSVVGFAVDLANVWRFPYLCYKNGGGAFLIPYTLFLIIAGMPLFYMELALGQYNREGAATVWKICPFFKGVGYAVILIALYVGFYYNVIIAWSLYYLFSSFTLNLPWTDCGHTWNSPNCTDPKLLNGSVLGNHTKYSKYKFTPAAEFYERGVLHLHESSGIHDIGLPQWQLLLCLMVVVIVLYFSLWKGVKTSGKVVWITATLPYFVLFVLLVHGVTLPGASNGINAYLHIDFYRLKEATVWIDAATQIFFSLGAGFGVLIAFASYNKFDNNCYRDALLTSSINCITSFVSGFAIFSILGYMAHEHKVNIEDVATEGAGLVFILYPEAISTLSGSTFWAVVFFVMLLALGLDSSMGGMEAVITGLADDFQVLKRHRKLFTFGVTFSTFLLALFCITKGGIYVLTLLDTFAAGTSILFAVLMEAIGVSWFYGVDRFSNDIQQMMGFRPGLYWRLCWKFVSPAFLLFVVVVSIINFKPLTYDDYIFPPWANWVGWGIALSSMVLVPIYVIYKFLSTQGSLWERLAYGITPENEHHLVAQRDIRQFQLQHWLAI

Row | Structure (SMILES) | AC50 [1] [µM] | AC50 [2] [µM] | AC50 [3] [µM] | AC50 [4] [µM] | AC50 [5] [µM]
1 | OC[C@H]1NC[C@H](O)[C@@H](O)[C@H]1O | > 30 | > 30 | > 30 | > 30 | > 30
2 | O=C(O)[C@@H](S)[C@@H](S)C(=O)O | – | > 30 | > 30 | > 30 | > 30
3 | CC#CC(=O)N1CCC[C@H]1c1nc(-c2ccc(C(=O)Nc3ccccn3)cc2)c2c(N)nccn12 [ACALABRUTINIB] | > 30 | > 30 | > 30 | > 30 | > 30
4 | C=CCOc1ccc(CC(=O)O)cc1Cl [ALCLOFENAC] | > 30 | > 30 | > 30 | > 30 | > 30
5 | NC(=O)C1(N2CCCCC2)CCN(CCCN2c3ccccc3CCc3ccccc32)CC1 [CARPIPRAMINE] | 13.7 | 0.208 | 4.39 | 11.7 | –
6 | CN1CCN(C(c2ccccc2)c2ccc(Cl)cc2)CC1 (centres undefined) [CHLORCYCLIZINE] | > 30 | 3.1 | 0.505 | 21.2 | –
7 | CCCCCCCCCCCCCCCC(=O)OC[C@H](COP(=O)([O-])OCC[N+](C)(C)C)OC(=O)CCCCCCCCCCCCCCC [COLFOSCERIL PALMITATE] | > 30 | > 30 | > 30 | > 30 | > 30
8 | O=P1(N(CCCl)CCCl)NCCCO1 (centres undefined) [CYCLOPHOSPHAMIDE ANHYDROUS] | > 30 | > 30 | > 30 | > 30 | > 30
9 | CC(C)Nc1cccnc1N1CCN(C(=O)c2cc3cc(NS(C)(=O)=O)ccc3[nH]2)CC1 [DELAVIRDINE] | > 30 | 13.4 | > 30 | > 30 | 23.2
10 | C[C@@H](CN1CC(=O)NC(=O)C1)N1CC(=O)NC(=O)C1 [DEXRAZOXANE] | > 30 | > 30 | > 30 | > 30 | > 30
11 | C[C@]12CC[C@@H]3c4ccc(OC(=O)N(CCCl)CCCl)cc4CC[C@H]3[C@@H]1CC[C@@H]2OP(=O)(O)O [ESTRAMUSTINE PHOSPHATE] | > 30 | > 30 | > 30 | > 30 | > 30
12 | O=c1[nH]c2ccccc2n1CCN1CCN(c2cccc(C(F)(F)F)c2)CC1 [FLIBANSERIN] | > 30 | 10.3 | > 30 | > 30 | 10.5
13 | O=C(O)[C@H](O)[C@@H](O)[C@H](O)[C@H](O)CO [GLUCONIC ACID] | > 30 | > 30 | > 30 | > 30 | > 30
14 | N=C(N)NCC1COc2ccccc2O1 (centres undefined) [GUANOXAN] | > 30 | 0.15 | > 30 | 5.56 | 19.9
15 | N#Cc1ccnc(N2C(=O)CC[C@H]2C(=O)N(c2cncc(F)c2)[C@H](C(=O)NC2CC(F)(F)C2)c2ccccc2Cl)c1 [IVOSIDENIB] | > 30 | > 30 | > 30 | > 30 | > 30
16 | CNC1(c2ccccc2Cl)CCCCC1=O (centres undefined) [KETAMINE] | > 30 | > 30 | > 30 | > 30 | > 30
17 | O=NN(CCCl)C(=O)NC1CCCCC1 [LOMUSTINE] | 14.1 | 3.5 | > 30 | > 30 | > 30
18 | O=C1[C@@H]2[C@H]3CC[C@H](C3)[C@@H]2C(=O)N1C[C@@H]1CCCC[C@H]1CN1CCN(c2nsc3ccccc23)CC1 [LURASIDONE] | – | – | – | 24.1 | > 30
19 | CCCCCCO[C@@H](C)c1cccc(-c2csc(NC(=O)c3cc(Cl)c(/C=C(\C)C(=O)O)c(Cl)c3)n2)c1OC [LUSUTROMBOPAG] | > 30 | > 30 | > 30 | > 30 | 14.2
